Measured values taken from publication PMC6801819, “Exogenous Iron Increases Fasciocidal Activity and Hepatocellular Toxicity of the Synthetic Endoperoxides OZ78 and MT04” (International Journal of Molecular Sciences, 2019).

What was measured:
[1] = system: F. hepatica; conditions: rats infected with F. hepatica, single oral dose AS 200 mg/kg, OZ78 100 mg/kg, MT04 50 mg/kg; cited from earlier work
[2] = system: NMRI mice; experiment: Liver toxicity study in mice (plasma AST, aPhos, bilirubin, liver histology); format: in vivo, mouse; conditions: for Histopathologic observation: liver 8 hours
Description: All animal studies were carried out at the Swiss Tropical and Public Health Institute (Basel, Switzerland) and were approved by Swiss and cantonal authorities (permission: 2070). Female NMRI mice (age: 3–4 weeks, weight: ~20 g) were purchased from Harlan Laboratories (Horst, The Netherlands). Mice were kept in groups of 10 animals in macrolon-cages in environmentally controlled conditions (temperature: ~25 °C; humidity: ~70%; 12 h light/dark cycle) and acclimatized for one week. They had free access to water and rodent diet. For the in vivo studies AS, OZ78 or MT04 were suspended in 7% (v/v) Tween-80 and 3% (v/v) ethanol.
Since treatment of F. hepatica infections in animals is typically performed by a single oral dose, we performed a pilot study to find out the best time point to kill the mice at which we could observe hepatic toxicity after drug application. This time point was 8 h after drug application (data not shown).
In the final experiment, mice were treated with 200, 400, or 800 mg/kg AS, OZ78, or MT04 by oral gavage. Seven mice were left untreated for control measurements. According to the results of the pilot experiments, where we measured the highest increase in total serum bilirubin, AST or alkaline phosphatase 8 h post-treatment, mice were euthanized by CO2 8 h post-treatment, blood was collected and analyzed as described above. After blood collection, the liver was removed, carefully examined macroscopically, and gross lesions were recorded. Livers were then stored in formalin 10% (v/v) until fixation in 4% paraformaldehyde was performed. After embedding in paraffin, sections of 5 μm thickness were obtained, stained with hematoxylin and eosin, and examined using light microscopy.

[3] = system: complex II of the mitochondrial electron transport chain; experiment: High-resolution respirometry, succinate + rotenone (complex II); format: cell-based, human; conditions: AS 100 µM, OZ78 500 µM, MT04 500 µM, 24 h, permeabilized HepG2, vs control
Description: After incubation with different drugs for 24 h, HepG2 cells were trypsinized and resuspended in DMEM with 10% fetal calf serum (FCS) and then centrifuged for 5 min (180× g). Cells were resuspended in MiRo5 respiration buffer (110 mM sucrose, 0.5 mM ethylene glycol-bis(β-aminoethyl ether)-N,N,N′,N′-tetraacetic acid (EGTA), 3.0 mM MgCl2, 80 mM KCl, 60 mM K-lactobionate, 10 mM KH2PO4, 20 mM taurine, 20 mM Hepes, 1.0 g/L BSA, pH 7.1). Respiration rates were measured at 37 °C using a high-resolution oxygraph (Oxygraph-2k, Oroboros Instruments, Innsbruck, Austria). Respiration rates were calculated as the time derivative of oxygen concentration measured in the closed respirometer. The amplified signal was recorded in a computer with an online display of the calibrated oxygen concentration and oxygen flux (DatLab software for data acquisition and analysis; Oroboros Instruments). The mitochondrial complex activity was assessed by a standard titration protocol: first cells were permeabilized with digitonin (10 µg/1 million cells) for 5 min. Afterward, for complex I-dependent maximal respiration stimulation, substrates added were glutamate (10 mM) and malate (5 mM), which provide nicotinamide adenine dinucleotide (NADH) to the respiratory chain (complex I activation), followed by addition of ADP (2.5 mM) (state 3, maximal respiration). After a stable signal was reached and marked, rotenone (0.5 µM) was added to inhibit complex I, and then complex II-dependent respiration was stimulated by adding succinate (10 mM), which provides flavin adenine dinucleotide (FADH) to the respiratory chain (complex II activation, state 3). Afterward, complex III was inhibited by antimycin A (2.5 µM), and complex IV-dependent respiration was measured by adding ascorbate (2 mM) and N,N,N′,N′-tetramethyl-p-phenylendiamine (TMPD, 0.5 mM). We confirmed the integrity of the outer mitochondrial membrane by showing the absence of a stimulatory effect of exogenous cytochrome c (10 µM) on respiration. Respiration was expressed as oxygen consumption per 5 × 10^5 cells.

[4] = system: HepG2 cells; experiment: Cellular reactive oxygen species (DCF-DA); format: cell-based, human; conditions: 24 h, HepG2
Description: Stock solutions of the drugs tested were prepared in DMSO 100% (v/v). […] LC-MS measurements confirmed the stability of the compounds (data not shown). Treatments with AS, MT04, or OZ78 (100 or 500 µM) were performed either alone or in combination with 8% (v/v) hemin or FeCl2 solution for 24 h. The final iron concentration used was 122 µM (stock 1.5 mM) based on previous in vitro studies with F. hepatica. Dichlorodihydrofluorescein diacetate (DCF-DA) dissolved in DMSO was used to assess cellular formation of reactive oxygen species (ROS). HepG2 cells were seeded in a black-wall 96 well plate with a clear bottom as described above. Briefly, 30 min before treatment started, DCF-DA was added to the cells at a final concentration of 25 µM. DCF-DA was removed completely before the drugs were added. ROS was measured after 90 min and 24 h of drug exposure using a Tecan M200 Infinite Pro (excitation 485 nm, emission 535 nm).

[5] = system: adult F. hepatica; experiment: In vitro/ex vivo adult worm viability assay; format: cell-based, Fasciola hepatica; conditions: for viability of adult F. hepatica (viability score): score 4 normal activity to 1 death; for viability of adult F. hepatica: 48 h
Description: The experiments were performed, as described previously. Adult F. hepatica were collected from bovine liver bile ducts obtained from the local slaughterhouse (Basel, Switzerland). After careful washing, a single adult worm was placed per well (6-well plate, Costar, MA, USA) containing 5.4 mL RPMI 1640 (Gibco, N.Y., USA), supplemented with 1% (v/v) antibiotics (50 µg/mL streptomycin and 50 U/mL penicillin), 1% (v/v) drug solution, […] Control worms were incubated in 1% (v/v) DMSO combined with iron or hemin. Experiments were conducted in triplicates and repeated once. Cultures were kept at 37 °C in an atmosphere of 5% CO2. The viabilities of treated and untreated worms were monitored at 0, 24, 48, and 72 h. Worms were examined by eye and/or using a dissecting microscope (20× lenses). The viability of adult flukes was scored using the following scale: 4: normal activity; movements were visible without a microscope, 3: reduced activities, 2: very weak activities detected only using microscopic magnification, and 1: death of worm (no movement observed for two min using a microscope).

[6] = mice, single oral dose 200-800 mg/kg, 8 h post-treatment

O=C(O)C[C@H]1CC[C@]2(CC1)OOC1(O2)C2CC3CC(C2)CC1C3 (stereo partly shown) [OZ78]
killing of juvenile and adult liver flukes in vivo [1]: efficiently killed juvenile and adult liver flukes | Histopathologic observation ([2]; 200 mg/kg oral, mouse 1): No lesions | Histopathologic observation ([2]; 200 mg/kg oral, mouse 2): Slight hydropic degeneration | Histopathologic observation ([2]; 200 mg/kg oral, mouse 3): Slight hydropic degeneration | Histopathologic observation ([2]; 200 mg/kg oral, mouse 4): No lesions | Histopathologic observation ([2]; 400 mg/kg oral, mouse 1): Slight hydropic degeneration | Histopathologic observation ([2]; 400 mg/kg oral, mouse 2): Passive congestion | Histopathologic observation ([2]; 400 mg/kg oral, mouse 3): Nuclear polymorphism | Histopathologic observation ([2]; 400 mg/kg oral, mouse 4): Slight hydropic degeneration | Histopathologic observation ([2]; 800 mg/kg oral, mouse 1): Slight hydropic degeneration | Histopathologic observation ([2]; 800 mg/kg oral, mouse 2): No lesions | Histopathologic observation ([2]; 800 mg/kg oral, mouse 3): Passive congestion | Histopathologic observation ([2]; 800 mg/kg oral, mouse 4): Slight hydropic degeneration | liver histology, group summary ([2]; mice, 200 mg/kg oral, 8 h): two mice (out of four) with slight hydropic degeneration of hepatocytes | liver histology, group summary ([2]; mice, 400 mg/kg oral, 8 h): two mice (out of four) with slight hydropic degeneration of hepatocytes | liver histology, group summary ([2]; mice, 800 mg/kg oral, 8 h): two mice (out of four) with slight hydropic degeneration of hepatocytes | plasma alkaline phosphatase (aPhos) [2, 6]: in the normal range | plasma aspartate aminotransferase (AST) [2, 6]: in the normal range | total serum bilirubin [2, 6]: in the normal range | hepatic toxicity in vivo (overall) ([2]; mice, single oral doses up to 800 mg/kg, 8 h): no relevant hepatic toxicity | inhibition of mitochondrial respiration, succinate + rotenone (complex II) [3]: only numerically, but without reaching statistical significance | cellular ROS content ([4]; drug + Fe2+): increased the cellular ROS content | increase of cellular ROS content, factor ([4]; drug alone (100 or 500 µM), no exogenous iron): 5 | viability of adult F. hepatica (viability score) ([5]; 50 µg/mL drug + Fe2+ (iron), 24 h): 3 | viability of adult F. hepatica ([5]; 50 µg/mL drug + Fe2+ (iron)): more efficient in impairing worm viability than OZ78 alone | viability of adult F. hepatica (viability score) ([5]; 50 µg/mL drug + Fe2+ (iron), 72 h): 2 | viability of adult F. hepatica (viability score) ([5]; 50 µg/mL drug + hemin, 24 h): 3 | viability of adult F. hepatica ([5]; 50 µg/mL drug + hemin): more efficient in impairing worm viability than OZ78 alone | viability of adult F. hepatica (viability score) ([5]; 50 µg/mL drug + hemin, 72 h): 2 | viability of adult F. hepatica (viability score) ([5]; 50 µg/mL drug alone, 24 h): no effect on worm vitality | viability of adult F. hepatica (viability score) ([5]; 50 µg/mL drug alone, 72 h): 2
